Source: ChEMBL document CHEMBL1201862, “PubChem BioAssay data set” (2004)
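In this assay, cells in 96-well plates receive the compound at five concentrations for 48 hours. Endpoints are linearly interpolated between the surrounding concentrations. GI50 = concentration required for 50% inhibition of growth.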 Calls of active or inactive are those of the source. Cut-off read from the data, not from the text of the source: active = GI50 up to about 1.1 µM and inactive = higher.

What was measured:
Test in all cases: NCI-60 cell line screen, 48 h
[1] = test system: COLO 205
[2] = test system: XF498
[3] = test system: SF-295
[4] = test system: DMS-273
[5] = test system: SW-620
[6] = test system: HT-29
[7] = test system: MOLT-4
[8] = test system: KM12
[9] = test system: OVCAR-3
[10] = test system: NCI-H23
[11] = test system: M14
[12] = test system: K562
[13] = test system: NCI-H226
[14] = test system: IGROV-1
[15] = test system: M19-MEL
[16] = test system: SR
[17] = test system: U-251
[18] = test system: NCI-H522
[19] = test system: UACC-62
[20] = test system: CCRF-CEM
[21] = test system: NCI-H460
[22] = test system: DMS-114
[23] = test system: SN12C
[24] = test system: 786-0
[25] = test system: HL-60
[26] = test system: SF-539
[27] = test system: DLD-1
[28] = test system: A549
[29] = test system: SK-MEL-5
[30] = test system: SNB-75
[31] = test system: KM-20L2
[32] = test system: HCC 2998
[33] = test system: SK-MEL-2
[34] = test system: RPMI-8226
[35] = test system: EKVX
[36] = test system: UO-31
[37] = test system: HOP-92
[38] = test system: HOP-18
[39] = test system: TK-10
[40] = test system: SK-OV-3
[41] = test system: HOP-62
[42] = test system: OVCAR-4
[43] = test system: SK-MEL-28
[44] = test system: OVCAR-8
[45] = test system: A498
[46] = test system: HCT-116
[47] = test system: RXF 393
[48] = test system: HCT-15
[49] = test system: CAKI-1
[50] = test system: LXFL 529
[51] = test system: UACC-257
[52] = test system: SNB-19
[53] = test system: LOX IMVI
[54] = test system: ACHN
[55] = test system: SF-268
[56] = test system: Malme-3M
[57] = test system: SNB-78

`CC1=C2C(=O)C3[C@@H](CCC4=CC(=O)CC[C@@]43C)C2CC[C@]12O[C@@H]1C[C@H](C)CN[C@H]1[C@H]2C` (stereo not given in full) was tested, and the GI50 [1] was 73.6 µM (inactive), the GI50 [2] was 12.6 µM (inactive) and the GI50 [3] was 32.8 µM (inactive). The GI50 [4] was 17.7 µM (inactive), the GI50 [5] was 57.9 µM (inactive) and the GI50 [6] was 39.8 µM (inactive). The GI50 [7] was 19.9 µM (inactive), the GI50 [8] was 30.1 µM (inactive) and the GI50 [9] was 45.8 µM (inactive). For the same molecule, the GI50 [10] was 37.6 µM (inactive), the GI50 [11] was 59 µM (inactive) and the GI50 [12] was 17.4 µM (inactive). The GI50 [13] was 70.5 µM (inactive), the GI50 [14] was > 100 µM (inactive) and the GI50 [15] was 36.2 µM (inactive). For the same molecule, the GI50 [16] was 17.1 µM (inactive), the GI50 [17] was 21.4 µM (inactive) and the GI50 [18] was 21 µM (inactive). The GI50 [19] was 23.4 µM (inactive), the GI50 [20] was 15.9 µM (inactive) and the GI50 [21] was 33.5 µM (inactive). For the same molecule, the GI50 [22] was 15.3 µM (inactive), the GI50 [23] was 36.3 µM (inactive) and the GI50 [24] was 43.4 µM (inactive). For the same molecule, the GI50 [25] was 12.3 µM (inactive), the GI50 [26] was 45.4 µM (inactive) and the GI50 [27] was > 100 µM (inactive). The GI50 [28] was 28 µM (inactive), the GI50 [29] was 42.1 µM (inactive) and the GI50 [30] was 72.8 µM (inactive). The GI50 [31] was 68.4 µM (inactive), the GI50 [32] was > 100 µM (inactive) and the GI50 [33] was 21.1 µM (inactive). The GI50 [34] was 20.7 µM (inactive), the GI50 [35] was 49 µM (inactive) and the GI50 [36] was 63.7 µM (inactive). For the same molecule, the GI50 [37] was 48.2 µM (inactive), the GI50 [38] was 49.3 µM (inactive) and the GI50 [39] was 29.2 µM (inactive). For the same molecule, the GI50 [40] was > 100 µM (inactive), the GI50 [41] was 16.9 µM (inactive) and the GI50 [42] was > 100 µM (inactive). For the same molecule, the GI50 [43] was 97.1 µM (inactive), the GI50 [44] was 40.7 µM (inactive) and the GI50 [45] was 32.3 µM (inactive). The GI50 [46] was 30.6 µM (inactive), the GI50 [47] was 38.5 µM (inactive) and the GI50 [48] was 48.8 µM. The GI50 [49] was > 100 µM (inactive), the GI50 [50] was 34.5 µM (inactive) and the GI50 [51] was 36 µM (inactive). The GI50 [52] was 44.4 µM (inactive), the GI50 [53] was 29.6 µM (inactive) and the GI50 [54] was 31.4 µM (inactive). For the same molecule, the GI50 [55] was 31.6 µM (inactive).

`[O-][S+](Cc1ccccn1)c1nc2ccccc2nc1-c1ccccc1` (stereo not given) was tested, and the GI50 [56] was 33.1 µM (inactive), the GI50 [1] was 18.8 µM (inactive) and the GI50 [2] was 17.5 µM (inactive). The GI50 [3] was 27.9 µM (inactive), the GI50 [4] was 26.1 µM (inactive) and the GI50 [6] was 44.4 µM (inactive). The GI50 [7] was 38.3 µM (inactive), the GI50 [9] was 44.9 µM (inactive) and the GI50 [10] was 34.8 µM (inactive). The GI50 [11] was 36 µM (inactive), the GI50 [12] was 31.3 µM (inactive) and the GI50 [13] was 18.9 µM (inactive). For the same molecule, the GI50 [14] was 36 µM (inactive), the GI50 [17] was 41.5 µM (inactive) and the GI50 [20] was 38.6 µM (inactive). For the same molecule, the GI50 [22] was 28.2 µM (inactive), the GI50 [23] was 35.3 µM (inactive) and the GI50 [24] was 47.2 µM (inactive). The GI50 [25] was 20.8 µM (inactive), the GI50 [28] was 47.2 µM (inactive) and the GI50 [30] was 26.3 µM (inactive). The GI50 [34] was 19.9 µM (inactive), the GI50 [57] was 21.2 µM (inactive) and the GI50 [35] was 30.7 µM (inactive). The GI50 [36] was 37.7 µM (inactive), the GI50 [37] was 28.3 µM (inactive) and the GI50 [38] was 80.4 µM (inactive). The GI50 [40] was 55.7 µM (inactive), the GI50 [42] was 26.9 µM (inactive) and the GI50 [43] was 53.8 µM (inactive). For the same molecule, the GI50 [44] was 26.5 µM (inactive), the GI50 [46] was 33.4 µM (inactive) and the GI50 [50] was 31.9 µM (inactive). For the same molecule, the GI50 [51] was 33.1 µM (inactive), the GI50 [52] was 62.4 µM (inactive) and the GI50 [54] was 48.1 µM (inactive). The GI50 [55] was 66.1 µM (inactive).

`CSc1nc2c(nc(N)n2C2OC(CO)C(O)C(O)C2O)c(=O)n1C` (stereo not given) was tested, and the GI50 [56] was > 100 µM (inactive), the GI50 [1] was > 100 µM (inactive) and the GI50 [2] was > 100 µM (inactive). For the same molecule, the GI50 [3] was > 100 µM (inactive), the GI50 [5] was > 100 µM (inactive) and the GI50 [6] was > 100 µM (inactive). For the same molecule, the GI50 [7] was > 100 µM (inactive), the GI50 [8] was > 100 µM (inactive) and the GI50 [9] was > 100 µM (inactive). For the same molecule, the GI50 [10] was > 100 µM (inactive), the GI50 [11] was > 100 µM (inactive) and the GI50 [12] was > 100 µM (inactive). The GI50 [13] was > 100 µM (inactive), the GI50 [14] was > 100 µM (inactive) and the GI50 [15] was > 100 µM (inactive). The GI50 [16] was > 100 µM (inactive), the GI50 [17] was > 100 µM (inactive) and the GI50 [18] was > 100 µM (inactive). For the same molecule, the GI50 [19] was > 100 µM (inactive), the GI50 [20] was > 100 µM (inactive) and the GI50 [21] was > 100 µM (inactive). For the same molecule, the GI50 [22] was > 100 µM (inactive), the GI50 [23] was > 100 µM (inactive) and the GI50 [24] was > 100 µM (inactive). For the same molecule, the GI50 [25] was > 100 µM (inactive), the GI50 [26] was > 100 µM (inactive) and the GI50 [27] was > 100 µM (inactive). The GI50 [28] was > 100 µM (inactive), the GI50 [29] was > 100 µM (inactive) and the GI50 [30] was > 100 µM (inactive). For the same molecule, the GI50 [31] was > 100 µM (inactive), the GI50 [32] was > 100 µM (inactive) and the GI50 [57] was > 100 µM (inactive). The GI50 [35] was > 100 µM (inactive), the GI50 [36] was > 100 µM (inactive) and the GI50 [37] was > 100 µM (inactive). The GI50 [38] was > 100 µM (inactive), the GI50 [39] was > 100 µM (inactive) and the GI50 [40] was > 100 µM (inactive). For the same molecule, the GI50 [41] was > 100 µM (inactive), the GI50 [42] was > 100 µM (inactive) and the GI50 [43] was > 100 µM (inactive). For the same molecule, the GI50 [44] was > 100 µM (inactive), the GI50 [45] was > 100 µM (inactive) and the GI50 [46] was > 100 µM (inactive). For the same molecule, the GI50 [47] was > 100 µM (inactive), the GI50 [49] was > 100 µM (inactive) and the GI50 [50] was > 100 µM (inactive). The GI50 [51] was > 100 µM (inactive), the GI50 [52] was > 100 µM (inactive) and the GI50 [53] was > 100 µM (inactive). The GI50 [54] was > 100 µM (inactive) and the GI50 [55] was > 100 µM (inactive).
